This is an account of results in PMC6149824, “Design and Synthesis of New Benzothiazole Compounds as Selective hMAO-B Inhibitors” (Molecules : A Journal of Synthetic Chemistry and Natural …, 2017).

Data set [1] addresses T1, hMAO-A (Homo sapiens, UniProt P21397).
T1 sequence (P21397 1-527): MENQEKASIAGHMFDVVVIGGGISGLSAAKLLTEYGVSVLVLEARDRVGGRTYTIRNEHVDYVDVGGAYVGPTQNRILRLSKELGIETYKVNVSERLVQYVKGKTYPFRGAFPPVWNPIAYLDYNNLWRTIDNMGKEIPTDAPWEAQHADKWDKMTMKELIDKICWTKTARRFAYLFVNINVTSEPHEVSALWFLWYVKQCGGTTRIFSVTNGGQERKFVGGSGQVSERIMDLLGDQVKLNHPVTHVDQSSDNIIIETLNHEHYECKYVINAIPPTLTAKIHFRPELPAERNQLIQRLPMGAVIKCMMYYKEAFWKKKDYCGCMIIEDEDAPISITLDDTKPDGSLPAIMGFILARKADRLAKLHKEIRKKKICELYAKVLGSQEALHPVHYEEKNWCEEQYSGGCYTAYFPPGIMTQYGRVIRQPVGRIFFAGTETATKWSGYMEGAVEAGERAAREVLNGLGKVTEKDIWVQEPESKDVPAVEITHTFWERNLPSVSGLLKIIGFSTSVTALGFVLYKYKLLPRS
In words: in vitro fluorometric hMAO-A inhibition assay (Amplex Red). The data set is classed as biochemical. The conditions noted are these: read-out: MAO A Inhibition %; for inhibition at 1000 µM: 10^−3 M; for inhibition at 100 µM: 10^−4 M. The protocol: The in vitro fluorometric enzymatic assay, allowing to sensitively detect monoamine oxidase activity, was applied to investigate hMAO-A and hMAO-B inhibitory potential of compounds 3a–3j. The method was performed in two steps, as previously described. […]
An enzyme inhibition assay was performed according to our recent study. The inhibitor (20 μL/well) and hMAO-A (100 μL/well) or hMAO-B solution (100 μL/well) was added to the fine black-bottom 96-well microtiter plate and the mixture was incubated at 37 °C for 30 min. After the incubation period, the reaction was started by adding a working solution (100 μL/well) ([…] Amplex Red reagent, 1 U/mL horseradish peroxidase and 1 mM p-tyramine) and all pipetting processes were performed using a Biotek Precision XS robotic system (BioTek Instruments, Winooski, VT, USA).
The production of H2O2 and, subsequently, of resorufin was quantified at 37 °C in a BioTek-Synergy H1 microplate reader based on the fluorescence generated (excitation, 535 nm, emission, 587 nm) over a 15 min period, in which the fluorescence increased linearly. Control experiments were carried out simultaneously by replacing the inhibitor solution with 2% DMSO (20 μL). In order to check the probable inhibitory effect of inhibitors on horseradish peroxidase, a parallel reading was achieved by replacing enzyme solutions with 3% H2O2 solution (20 mM 100 μL/well). In addition, the probable capacity of the inhibitors to modify the fluorescence generated in the reaction mixture due to non-enzymatic inhibition was determined by mixing inhibitor and working solutions.
(§1) The specific fluorescence emission (used to obtain the final results) was calculated after subtraction of the background activity, which was determined from vials containing all components except the hMAO isoforms, which were replaced by phosphate buffer (100 μL/well). Blank, control and all concentrations of inhibitors were analyzed in quadruplicate and inhibition percent was calculated by using following equation: % Inhibition=(FCt2−FCt1)−(FIt2−FIt1)/FCt2−FCt1×100 where FCt2 is the fluorescence of a control well measured at t2 time; FCt1 is the fluorescence of a control well measured at t1 time; FIt2 is the fluorescence of an inhibitor well measured at t2 time; and FIt1 is the fluorescence of an inhibitor well measured at t1 time.
(§2) The IC50 values were calculated from a dose-response curve obtained by plotting the percentage inhibition versus the log concentration with the use of GraphPad PRISM software (version 5.0, GraphPad Software Inc., La Jolla, CA, USA).

The target of data set [2] is T2, hMAO-B (Homo sapiens, UniProt P27338).
T2 sequence (P27338 1-520): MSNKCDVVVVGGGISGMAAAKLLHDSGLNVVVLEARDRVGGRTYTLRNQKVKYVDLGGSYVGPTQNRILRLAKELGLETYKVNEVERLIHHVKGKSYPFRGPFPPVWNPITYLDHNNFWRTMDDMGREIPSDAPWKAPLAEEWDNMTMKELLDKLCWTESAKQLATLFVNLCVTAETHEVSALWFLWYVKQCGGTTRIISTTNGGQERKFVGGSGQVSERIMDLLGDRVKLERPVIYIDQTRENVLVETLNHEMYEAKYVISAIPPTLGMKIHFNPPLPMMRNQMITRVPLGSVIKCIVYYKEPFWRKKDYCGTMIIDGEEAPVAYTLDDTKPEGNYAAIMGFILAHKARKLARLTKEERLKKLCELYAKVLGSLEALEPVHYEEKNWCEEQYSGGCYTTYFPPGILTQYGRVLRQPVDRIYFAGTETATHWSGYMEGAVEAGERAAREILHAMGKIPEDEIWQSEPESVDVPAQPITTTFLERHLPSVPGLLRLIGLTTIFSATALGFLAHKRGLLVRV
In words: in vitro fluorometric hMAO-B inhibition assay (Amplex Red). The conditions noted are these: for inhibition at 1000 µM: 10^−3 M; for inhibition at 1000 µM / inhibition at 100 µM: read-out: MAO B Inhibition %; for inhibition at 100 µM: 10^−4 M; for inhibition against hMAO-B (first screening step): 10^−3 and 10^−4 M; for IC50: concentrations of 10^−5–10^−9 M, mean ± SD, read-out: MAO B IC50. Format: biochemical. The protocol: The method was performed in two steps, as previously described.
An enzyme inhibition assay was performed according to our recent study. […] After the incubation period, the reaction was started by adding a working solution (100 μL/well) ([…] Amplex Red reagent, 1 U/mL horseradish peroxidase and 1 mM p-tyramine) and all pipetting processes were performed using a Biotek Precision XS robotic system (BioTek Instruments, Winooski, VT, USA).
Control experiments were carried out simultaneously by replacing the inhibitor solution with 2% DMSO (20 μL). In order to check the probable inhibitory effect of inhibitors on horseradish peroxidase, a parallel reading was achieved by replacing enzyme solutions with 3% H2O2 solution (20 mM 100 μL/well). In addition, the probable capacity of the inhibitors to modify the fluorescence generated in the reaction mixture due to non-enzymatic inhibition was determined by mixing inhibitor and working solutions.
as §1, §2

The term inhibition denotes the share of the control response that was lost under treatment. One may read the melting point as the temperature of the solid-liquid transition. Compound `COc1ccc2sc(SCC(=O)NN=Cc3sccc3C)nc2c1` [Compound 3b, 2-((5-Methoxybenzo[d]thiazol-2-yl)thio)-N′-((3-methylthiophen-2-yl)methylene)acetohydrazide] gave a melting point of 162.9 to 164.4 °C. In addition, in data set [1], the inhibition at 1000 µM is 30.1% and the inhibition at 100 µM is 20.4%. Besides, in data set [2], the inhibition at 1000 µM is 30.5% and the inhibition at 100 µM amounted to 26.9%.

As for `COc1ccc2sc(SCC(=O)NN=Cc3ccncc3)nc2c1` [Compound 3j, 2-((5-Methoxybenzothiazol-2-yl)thio)-N′-(pyridin-4-ylmethylene)acetohydrazide], the melting point lay within 159.8 to 161.4 °C. In addition, in data set [1], the inhibition at 1000 µM worked out at 22.1% and the inhibition at 100 µM came to 17.3%. Further, in data set [2], the inhibition at 1000 µM is 34.6% and the inhibition at 100 µM amounted to 30.5%.

In turn, `COc1ccc2sc(SCC(=O)NN=Cc3ccc(Br)s3)nc2c1` [Compound 3d, N′-((5-Bromothiophen-2-yl)methylene)-2-((5-methoxybenzothiazol-2-yl)thio)acetohydrazide] gave a melting point of 188.3 to 190.4 °C. In addition, in data set [1], the inhibition at 1000 µM came to 18.9% and the inhibition at 100 µM amounted to 12.7%. Also, in data set [2], the inhibition at 1000 µM stood at 24% and the inhibition at 100 µM was 17.8%.

For the compound `COc1ccc2sc(SCC(=O)NN=Cc3ccc(C)o3)nc2c1` [Compound 3g, 2-((5-Methoxybenzothiazol-2-yl)thio)-N′-((5-methylfuran-2-yl)methylene)acetohydrazide], the melting point was in the range of 145.3 to 146.7 °C. Also, in data set [1], the inhibition at 1000 µM was 16.7% and the inhibition at 100 µM came out at 11.1%. Further, in data set [2], the inhibition at 1000 µM was 18.2% and the inhibition at 100 µM was 11.2%.

Compound `COc1ccc2sc(SCC(=O)NN=Cc3ccc(C)s3)nc2c1` [Compound 3c, 2-((5-Methoxybenzothiazol-2-yl)thio)-N′-((5-methylthiophen-2-yl)methylene)acetohydrazide] registered a melting point of 149.6 to 152.3 °C. Further, in data set [1], the inhibition at 1000 µM turned out to be 14.1% and the inhibition at 100 µM came out at 10.8%. For the same compound, in data set [2], the inhibition at 1000 µM was found to be 25.8% and the inhibition at 100 µM is 18.2%.

As a reminder, the IC50 is the point on the concentration scale where inhibition reaches its midpoint. Consider `COc1ccc2sc(SCC(=O)NN=Cc3ccco3)nc2c1` [Compound 3f, N′-(Furan-2-ylmethylene)-2-((5-methoxybenzothiazol-2-yl)thio)acetohydrazide], for which the melting point fell in the range of 146.1 to 147.9 °C. Moreover, in data set [1], the inhibition at 1000 µM is 30.8% and the inhibition at 100 µM is 18.3%. Also, in data set [2], the inhibition at 1000 µM is 75.7%, the “inhibition against hMAO-B (first screening step)” value (from here on “inhibition against hMAO-B”) was “more than 50%”, the inhibition at 100 µM was determined as 68.3% and the IC50 is 963 ± 33 nM.

Take `COc1ccc2sc(SCC(=O)NN=Cc3cccs3)nc2c1` [Compound 3a, 2-((5-Methoxybenzothiazol-2-yl)thio)-N′-(thiophen-2-ylmethylene)acetohydrazide]: the melting point was in the range of 163.7 to 165.3 °C. In data set [1], the inhibition at 1000 µM worked out at 25% and the inhibition at 100 µM amounted to 19%. For the same compound, in data set [2], the inhibition at 1000 µM worked out at 60.4%, the “inhibition against hMAO-B” value is listed as “more than 50%”, the inhibition at 100 µM is 52.1% and the IC50 was determined as 15400 ± 398 nM.

Compound `COc1ccc2sc(SCC(=O)NN=Cc3cccnc3)nc2c1` [Compound 3i, 2-((5-Methoxybenzothiazol-2-yl)thio)-N′-(pyridin-3-ylmethylene)acetohydrazide] displayed a melting point of 177.5 to 179.3 °C. Further, in data set [1], the inhibition at 1000 µM was found to be 19.9% and the inhibition at 100 µM turned out to be 10.6%. Further, in data set [2], the inhibition at 1000 µM was determined as 32% and the inhibition at 100 µM was 28.8%.

Regarding `O=C(NCCN1CCOCC1)c1ccc(Cl)cc1` [Moclobemide, reference compound], in data set [1], the inhibition at 1000 µM is 91.4 ± 4.6% and the inhibition at 100 µM was found to be 77.9 ± 3.71%.

Take `COc1ccc2sc(SCC(=O)NN=Cc3ccc([N+](=O)[O-])o3)nc2c1` [Compound 3h, 2-((5-Methoxybenzothiazol-2-yl)thio)-N′-((5-nitrofuran-2-yl)methylene)acetohydrazide]: the melting point was in the range of 168.9 to 170.7 °C. Also, in data set [1], the inhibition at 1000 µM was determined as 25.9% and the inhibition at 100 µM was found to be 21.3%. Also, in data set [2], the inhibition at 1000 µM was 82.6%, the “inhibition against hMAO-B” value is listed as “more than 50%”, the inhibition at 100 µM was 79.1% and the IC50 is 75 ± 3 nM.
